According to US11578056B2, “Solid forms comprising (S)-2-(2,6-dioxopiperidin-3-yl)-4-((2-fluoro-4-((3-morpholinoazetidin-1-yl)methyl)benzyl)amino)isoindoline-1,3-dione and salts thereof, and compositions comprising and methods of using the same” (Celgene Corporation, priority 2019, dated 2023):
pEC50, pIC50: −log10 of the molar value.

Key:
Assay in all cases: Hematological cell line viability/apoptosis flow cytometry assay
Format in all cases: cell-based
ROS-50 cell line = conditions: ROS-50 (DLBCL), 120 h
How it was run: (§1)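 IC50 and EC50 derive from dose–response curves for DMSO-normalized live-cell counts and Annexin V-positive fraction, respectively. Both were measured by flow cytometry after 120 h of treatment at 0.00015–10 μM compound, 0.1% DMSO.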

L-363 cell line = conditions: L-363 (MM, PCL), 120 h
How it was run: as §1

SK-MM-1 cell line = conditions: SK-MM-1 (MM, PCL), 120 h
How it was run: as §1

NCI-H929 cell line = conditions: NCI-H929 (MM), 120 h
How it was run: as §1

U-2940 cell line = conditions: U-2940 (DLBCL PMBL); 120 h
How it was run: as §1

OPM-2 cell line = conditions: OPM-2 (MM), 120 h
How it was run: as §1

L-428 cell line = conditions: L-428 (HL), 120 h
How it was run: as §1

RC-K8 cell line = conditions: RC-K8 (DLBCL ABC); 120 h
How it was run: as §1

Toledo cell line = conditions: Toledo (DLBCL GCB); 120 h
How it was run: as §1

OCI-LY7 cell line = conditions: OCI-LY7 (DLBCL GCB); 120 h
How it was run: as §1

BL-41 cell line = conditions: BL-41 (BL), 120 h
How it was run: as §1

U-2946 cell line = conditions: U-2946 (DLBCL), 120 h
How it was run: as §1

HG3 cell line = conditions: HG3 (CLL), 120 h
How it was run: as §1

[1] = Homo sapiens, read-out: % Viable Cells IC50

Structure (SMILES): O=C1CC[C@H](N2C(=O)c3cccc(NCc4ccc(CN5CC(N6CCOCC6)C5)cc4F)c3C2=O)C(=O)N1 [Compound 1, (S)-2-(2,6-dioxopiperidin-3-yl)-4-((2-fluoro-4-((3-morpholinoazetidin-1-yl)methyl)benzyl)amino)isoindoline-1,3-dione]
- % Viable Cells AUC (ROS-50 cell line): 762.1
- % Viable Cells Emax (ROS-50 cell line): 65.57%
- Apoptosis AUC (ROS-50 cell line): 87.92
- Apoptosis Ymax (ROS-50 cell line): 10.9%
- pEC50 (ROS-50 cell line): 6.48
- pIC50 (ROS-50 cell line; read-out: % Viable Cells IC50): < 5.00
- pEC50 (L-363 cell line; Homo sapiens): 5.10
- pIC50 (L-363 cell line; [1]): 9.00
- % Viable Cells AUC (L-363 cell line): 309.1
- % Viable Cells Emax (L-363 cell line): 27.6%
- Apoptosis AUC (L-363 cell line): 2.954
- Apoptosis Ymax (L-363 cell line): 2%
- % Viable Cells AUC (SK-MM-1 cell line): 202.2
- % Viable Cells Emax (SK-MM-1 cell line): 3%
- Apoptosis AUC (SK-MM-1 cell line): 90.99
- Apoptosis Ymax (SK-MM-1 cell line): 44.5%
- pEC50 (SK-MM-1 cell line): 4.06
- pIC50 (SK-MM-1 cell line; read-out: % Viable Cells IC50): 9.10
- pEC50 (NCI-H929 cell line; Homo sapiens): 4.95
- pIC50 (NCI-H929 cell line; [1]): 9.15
- % Viable Cells AUC (NCI-H929 cell line): 215.5
- % Viable Cells Emax (NCI-H929 cell line): 6.1%
- Apoptosis AUC (NCI-H929 cell line): 16.86
- Apoptosis Ymax (NCI-H929 cell line): 7.00%
- % Viable Cells AUC (U-2940 cell line): 70.43
- % Viable Cells Emax (U-2940 cell line): 5.192%
- Apoptosis AUC (U-2940 cell line): 792.5
- Apoptosis Ymax (U-2940 cell line): 82.19%
- pEC50 (OPM-2 cell line; Homo sapiens): 5.88
- pIC50 (OPM-2 cell line; [1]): 9.52
- % Viable Cells AUC (OPM-2 cell line): 210.5
- % Viable Cells Emax (OPM-2 cell line): 6.65%
- Apoptosis AUC (OPM-2 cell line): 212.6
- Apoptosis Ymax (OPM-2 cell line): 63.00%
- pEC50 (L-428 cell line; Homo sapiens): 4.19
- pIC50 (L-428 cell line; [1]): 6.60
- % Viable Cells AUC (L-428 cell line): 450.4
- % Viable Cells Emax (L-428 cell line): 47.3%
- Apoptosis AUC (L-428 cell line): 63.35
- Apoptosis Ymax (L-428 cell line): 27.50%
- % Viable Cells AUC (RC-K8 cell line): 115.7
- % Viable Cells Emax (RC-K8 cell line): 10.06%
- Apoptosis AUC (RC-K8 cell line): 349.2
- Apoptosis Ymax (RC-K8 cell line): 26.31%
- % Viable Cells AUC (Toledo cell line): 112.3
- % Viable Cells Emax (Toledo cell line): 8.56%
- Apoptosis AUC (Toledo cell line): 231.4
- Apoptosis Ymax (Toledo cell line): 27.5%
- % Viable Cells AUC (OCI-LY7 cell line): 48.18
- % Viable Cells Emax (OCI-LY7 cell line): 4.191%
- Apoptosis AUC (OCI-LY7 cell line): 682.7
- Apoptosis Ymax (OCI-LY7 cell line): 71.18%
- % Viable Cells AUC (BL-41 cell line): 270.2
- % Viable Cells Emax (BL-41 cell line): 96.65%
- Apoptosis AUC (BL-41 cell line): 288.2
- Apoptosis Ymax (BL-41 cell line): 79.5%
- pEC50 (BL-41 cell line; Homo sapiens): 5.16
- pIC50 (BL-41 cell line; [1]): 5.22
- % Viable Cells AUC (U-2946 cell line): 45.47
- % Viable Cells Emax (U-2946 cell line): 0.4821%
- Apoptosis AUC (U-2946 cell line): 762.6
- Apoptosis Ymax (U-2946 cell line): 93.34%
- pEC50 (U-2946 cell line): 6.72
- pIC50 (U-2946 cell line; read-out: % Viable Cells IC50): 8.34
- % Viable Cells AUC (HG3 cell line): 676.2
- % Viable Cells Emax (HG3 cell line): 59.58%
- Apoptosis AUC (HG3 cell line): 131.5
- Apoptosis Ymax (HG3 cell line): 14.28%
- pEC50 (HG3 cell line; HG-3): 6.96
- pIC50 (HG3 cell line; HG-3, read-out: % Viable Cells IC50): < 5.00
